Source: ChEMBL document CHEMBL1201862, “PubChem BioAssay data set” (2004)
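Method: 48-hour compound exposure of cells in 96-well plates, five concentrations, linear interpolation of endpoints. The concentration for 50% growth inhibition is given as GI50.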 The source made the active and inactive calls. No stated cut-off is given here; in the data, active = GI50 up to about 1.1 µM and inactive = higher.

What was measured:
Assay in all cases: NCI-60 cell line screen, 48 h
HCC 2998 = tested on: HCC 2998
SR = tested on: SR
LOX IMVI = tested on: LOX IMVI
OVCAR-5 = tested on: OVCAR-5
HOP-62 = tested on: HOP-62
Hs-578T = tested on: Hs-578T
COLO 205 = tested on: COLO 205
SK-OV-3 = tested on: SK-OV-3
HT-29 = tested on: HT-29
PC-3 = tested on: PC-3
NCI-H522 = tested on: NCI-H522
M14 = tested on: M14
DU-145 = tested on: DU-145
MCF7 = tested on: MCF7
KM12 = tested on: KM12
SF-268 = tested on: SF-268
OVCAR-4 = tested on: OVCAR-4
A549 = tested on: A549
OVCAR-8 = tested on: OVCAR-8
RPMI-8226 = tested on: RPMI-8226

Row | SMILES | GI50 (HCC 2998) | GI50 (SR) | GI50 (LOX IMVI) | GI50 (OVCAR-5) | GI50 (HOP-62) | GI50 (Hs-578T) | GI50 (COLO 205) | GI50 (SK-OV-3) | GI50 (HT-29) | GI50 (PC-3) | GI50 (NCI-H522) | GI50 (M14) | GI50 (DU-145) | GI50 (MCF7) | GI50 (KM12) | GI50 (SF-268) | GI50 (OVCAR-4) | GI50 (A549) | GI50 (OVCAR-8) | GI50 (RPMI-8226)
1 | COc1cc2c(cc1OC)-c1cc3cc(OC)c(OC)cc3c(=O)n1CC2 | 30.7 µM (inactive) | 2.07 µM (inactive) | 13.2 µM (inactive) | > 62.2 µM (inactive) | 6.5 µM (inactive) | 6 µM (inactive) | 26.5 µM (inactive) | 14.1 µM (inactive) | 28.6 µM (inactive) | 21.2 µM (inactive) | 2.76 µM (inactive) | 27 µM (inactive) | 4.57 µM (inactive) | 5.89 µM (inactive) | > 50.5 µM (inactive) | 26.5 µM (inactive) | 30.3 µM (inactive) | 41.2 µM (inactive) | 41.9 µM (inactive) | 3.16 µM (inactive)
2 | Nc1cc(OCc2ccccc2)c(OCc2ccccc2)cc1C=O | 8.57 µM (inactive) | 26.6 µM (inactive) | 26.2 µM (inactive) | 55.2 µM (inactive) | > 10 µM (inactive) | 42.4 µM (inactive) | 24.7 µM (inactive) | 52.5 µM (inactive) | 22.9 µM (inactive) | 35.1 µM (inactive) | 0.141 µM (active) |  | 31.6 µM (inactive) | 36.7 µM (inactive) | 23.3 µM (inactive) | 65.2 µM (inactive) |  | 23.8 µM (inactive) | 26.4 µM (inactive) | 27 µM (inactive)
3 | Cc1ccc(C(=O)/C=C2\Nc3ccccc3NC2=O)cc1 | 11.5 µM (inactive) | 15.5 µM (inactive) | 7.94 µM (inactive) | 29.4 µM (inactive) | 2.04 µM (inactive) | 2.21 µM (inactive) | > 100 µM (inactive) | 2.19 µM (inactive) | 20 µM (inactive) | 4.84 µM (inactive) | 2.49 µM (inactive) | 9.27 µM (inactive) | 4.69 µM (inactive) | 9.98 µM (inactive) | 17.1 µM (inactive) | 5.96 µM (inactive) | 1.79 µM (inactive) | 4.94 µM (inactive) | 3.08 µM (inactive) | 11.1 µM (inactive)
4 | COC(=O)NC(Nc1ccc(C)cc1)(C(F)(F)F)C(F)(F)F | > 100 µM (inactive) | 61.2 µM (inactive) | > 100 µM (inactive) | > 100 µM (inactive) | > 100 µM (inactive) | > 100 µM (inactive) | > 100 µM (inactive) | > 100 µM (inactive) | > 100 µM (inactive) | > 100 µM (inactive) | > 100 µM (inactive) | > 100 µM (inactive) | > 100 µM (inactive) | > 100 µM (inactive) | > 100 µM (inactive) | > 100 µM (inactive) |  | > 100 µM (inactive) | > 100 µM (inactive) | > 100 µM (inactive)
5 | Cc1ccnc2nc3[nH]c4ccccc4c3cc12 | > 100 µM (inactive) | 71.1 µM (inactive) | > 100 µM (inactive) | > 100 µM (inactive) | 75.7 µM (inactive) | > 100 µM (inactive) | > 100 µM (inactive) |  | > 100 µM (inactive) | > 100 µM (inactive) | > 100 µM (inactive) | > 100 µM (inactive) | > 100 µM (inactive) | > 100 µM (inactive) | > 100 µM (inactive) | > 100 µM (inactive) | > 100 µM (inactive) | > 100 µM (inactive) | 66.8 µM (inactive) | > 100 µM (inactive)
6 | CCc1n[nH]c(=O)n1-c1ccncc1 | > 100 µM (inactive) | > 100 µM (inactive) | > 100 µM (inactive) | > 100 µM (inactive) | > 100 µM (inactive) | > 100 µM (inactive) | > 100 µM (inactive) |  | > 100 µM (inactive) | > 100 µM (inactive) | > 100 µM (inactive) | > 100 µM (inactive) | > 100 µM (inactive) | > 100 µM (inactive) | > 100 µM (inactive) | > 100 µM (inactive) | > 100 µM (inactive) | > 100 µM (inactive) | > 100 µM (inactive) | > 100 µM (inactive)
7 | N=C(N)c1ccc(/N=N\c2c(O)ccc3c2[nH]c2ccccc23)cc1 | 1.76 µM (inactive) | 2.54 µM (inactive) | 2.24 µM (inactive) | 41.5 µM (inactive) | 13.6 µM (inactive) | 63.8 µM (inactive) | 21.7 µM (inactive) | 25.2 µM (inactive) | 19.6 µM (inactive) | 9.73 µM (inactive) | > 53.2 µM (inactive) | 36.1 µM (inactive) | 34.6 µM (inactive) | 1.75 µM (inactive) | 1.85 µM (inactive) | 19.5 µM (inactive) | 6.14 µM (inactive) | 2.34 µM (inactive) | 2.46 µM (inactive) | 2.19 µM (inactive)
